From ChEMBL document CHEMBL1201862, “PubChem BioAssay data set” (2004)
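Five compound concentrations were applied to cells in 96-well plates for 48 hours; endpoints were derived by simple linear interpolation of the resulting dose-response curve. The concentration for 50% growth inhibition is given as GI50.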 Activity calls are given as the source filed them. No stated cut-off is given here; in the data, active = GI50 up to about 1.1 µM and inactive = higher.

How the values were obtained:
Assay in all cases: NCI-60 cell line screen, 48 h
UACC-257 = system: UACC-257
K562 = system: K562
HCC 2998 = system: HCC 2998
KM12 = system: KM12
NCI-H23 = system: NCI-H23
NCI-H522 = system: NCI-H522
MDA-MB-435 = system: MDA-MB-435
MDA-MB-231 = system: MDA-MB-231
UACC-62 = system: UACC-62
SNB-75 = system: SNB-75
CCRF-CEM = system: CCRF-CEM
CAKI-1 = system: CAKI-1
SN12C = system: SN12C
Malme-3M = system: Malme-3M
T47D = system: T47D
MDA-N = system: MDA-N
Hs-578T = system: Hs-578T
HCT-116 = system: HCT-116
SF-539 = system: SF-539
SK-OV-3 = system: SK-OV-3

Compound	GI50 (UACC-257)	GI50 (K562)	GI50 (HCC 2998)	GI50 (KM12)	GI50 (NCI-H23)	GI50 (NCI-H522)	GI50 (MDA-MB-435)	GI50 (MDA-MB-231)	GI50 (UACC-62)	GI50 (SNB-75)	GI50 (CCRF-CEM)	GI50 (CAKI-1)	GI50 (SN12C)	GI50 (Malme-3M)	GI50 (T47D)	GI50 (MDA-N)	GI50 (Hs-578T)	GI50 (HCT-116)	GI50 (SF-539)	GI50 (SK-OV-3)
Cn1c(=O)c2c(nc(NCCNc3nc4c(c(=O)n(C)c(=O)n4C)n3C)n2C)n(C)c1=O	> 100 µM (inactive)	> 100 µM (inactive)	> 100 µM (inactive)	> 100 µM (inactive)	> 100 µM (inactive)	> 100 µM (inactive)	> 100 µM (inactive)	> 100 µM (inactive)	> 100 µM (inactive)	> 100 µM (inactive)	> 100 µM (inactive)	> 100 µM (inactive)	> 100 µM (inactive)	> 100 µM (inactive)	> 100 µM (inactive)	> 100 µM (inactive)	> 100 µM (inactive)	> 100 µM (inactive)	–	–
COc1cc2cc(C(=O)N3CC(COS(C)(=O)=O)c4c3cc([N+](=O)[O-])c3ccccc43)[nH]c2c(OC)c1OC (stereo not given)	> 31.6 µM (inactive)	> 100 µM (inactive)	0.291 µM (active)	30.1 µM (inactive)	2.78 µM (inactive)	2.99 µM (inactive)	> 31.6 µM (inactive)	60.4 µM (inactive)	2.74 µM (inactive)	> 24 µM (inactive)	0.778 µM (active)	0.398 µM (active)	5.83 µM (inactive)	–	> 31.6 µM (inactive)	19.5 µM (inactive)	> 31.6 µM (inactive)	1.24 µM (inactive)	4.05 µM (inactive)	61.9 µM (inactive)
O=C1/C(=C/c2cccc3ccccc23)CCc2ccc([N+](=O)[O-])cc21	–	7.16 µM (inactive)	83.8 µM (inactive)	6.32 µM (inactive)	67.5 µM (inactive)	–	6.71 µM (inactive)	28.5 µM (inactive)	13.3 µM (inactive)	19.2 µM (inactive)	60.8 µM (inactive)	24.8 µM (inactive)	28.4 µM (inactive)	17.3 µM (inactive)	21 µM (inactive)	8.81 µM (inactive)	9.57 µM (inactive)	14.5 µM (inactive)	21.5 µM (inactive)	21.6 µM (inactive)
Cc1nn(C(=O)c2ccccc2O)c2c1C(c1ccc3ccccc3c1O)SC(=N)N2 (stereo not given)	3.53 µM (inactive)	3.6 µM (inactive)	–	7.46 µM (inactive)	4.97 µM (inactive)	–	5.93 µM (inactive)	3.05 µM (inactive)	1.77 µM (inactive)	2.85 µM (inactive)	3.76 µM (inactive)	3.52 µM (inactive)	6.58 µM (inactive)	> 10 µM (inactive)	1.87 µM (inactive)	3.44 µM (inactive)	1.7 µM (inactive)	1.5 µM (inactive)	4.53 µM (inactive)	6.3 µM (inactive)
O=C1CN(/N=C/c2ccc(-c3ccc(F)cc3)o2)C(=O)N1	21.8 µM (inactive)	35 µM (inactive)	80.9 µM (inactive)	33.1 µM (inactive)	82.6 µM (inactive)	21.1 µM (inactive)	18.5 µM (inactive)	> 100 µM (inactive)	45.5 µM (inactive)	–	> 100 µM (inactive)	58.6 µM (inactive)	91.2 µM (inactive)	47.5 µM (inactive)	> 100 µM (inactive)	16.9 µM (inactive)	45.5 µM (inactive)	50.8 µM (inactive)	34.4 µM (inactive)	> 100 µM (inactive)
C=C(C)CNC(=S)N(N)c1ccc2ccccc2c1	> 100 µM (inactive)	40.4 µM (inactive)	47.3 µM (inactive)	13.6 µM (inactive)	> 100 µM (inactive)	46.6 µM (inactive)	72.3 µM (inactive)	> 100 µM (inactive)	23.9 µM (inactive)	> 100 µM (inactive)	95.3 µM (inactive)	–	> 100 µM (inactive)	> 100 µM (inactive)	24.2 µM (inactive)	> 100 µM (inactive)	> 100 µM (inactive)	> 100 µM (inactive)	> 100 µM (inactive)	> 100 µM (inactive)
CC(=O)Oc1ccc2cc(Oc3ccc(Cl)cc3)c(=O)oc2c1	24.1 µM (inactive)	–	35.8 µM (inactive)	37.8 µM (inactive)	41.4 µM (inactive)	22.3 µM (inactive)	–	44.3 µM (inactive)	–	75.5 µM (inactive)	–	53 µM (inactive)	29.6 µM (inactive)	25 µM (inactive)	34.1 µM (inactive)	25.6 µM (inactive)	79.1 µM (inactive)	27.5 µM (inactive)	33.3 µM (inactive)	–
CCN(CC)c1ccc2cc(-c3csc(C)n3)c(=O)oc2c1	77.8 µM (inactive)	> 100 µM (inactive)	58.5 µM (inactive)	13.5 µM (inactive)	–	–	42.9 µM (inactive)	71.8 µM (inactive)	52.8 µM (inactive)	0.0585 µM (active)	> 100 µM (inactive)	> 100 µM (inactive)	> 100 µM (inactive)	–	2.14 µM (inactive)	0.719 µM (active)	25.7 µM (inactive)	69.8 µM (inactive)	77.3 µM (inactive)	> 100 µM (inactive)
COC1OC(COC(=O)NCCCCC(=O)C(F)(F)F)C(O)C(O)C1O (stereo not given)	> 100 µM (inactive)	> 100 µM (inactive)	> 100 µM (inactive)	> 100 µM (inactive)	> 100 µM (inactive)	–	> 100 µM (inactive)	> 100 µM (inactive)	> 100 µM (inactive)	> 100 µM (inactive)	> 100 µM (inactive)	> 100 µM (inactive)	> 100 µM (inactive)	> 100 µM (inactive)	> 100 µM (inactive)	> 100 µM (inactive)	> 100 µM (inactive)	> 100 µM (inactive)	> 100 µM (inactive)	> 100 µM (inactive)
CN(C)C(=S)Oc1ccc2ccc(=O)oc2c1	> 100 µM (inactive)	–	> 100 µM (inactive)	> 100 µM (inactive)	> 100 µM (inactive)	> 100 µM (inactive)	> 100 µM (inactive)	> 100 µM (inactive)	> 100 µM (inactive)	> 100 µM (inactive)	–	> 100 µM (inactive)	> 100 µM (inactive)	> 100 µM (inactive)	> 100 µM (inactive)	> 100 µM (inactive)	> 100 µM (inactive)	> 100 µM (inactive)	> 100 µM (inactive)	> 100 µM (inactive)
COC1(OC)CCCCCCCCC(OC)(OC)CCCCCCCC1	> 100 µM (inactive)	> 100 µM (inactive)	> 100 µM (inactive)	> 100 µM (inactive)	> 100 µM (inactive)	> 100 µM (inactive)	> 100 µM (inactive)	–	> 100 µM (inactive)	> 100 µM (inactive)	–	> 100 µM (inactive)	> 100 µM (inactive)	> 100 µM (inactive)	> 100 µM (inactive)	> 100 µM (inactive)	> 100 µM (inactive)	> 100 µM (inactive)	> 100 µM (inactive)	> 100 µM (inactive)
Cc1ccc(C2SC(=N)Nc3c2c(C)nn3C(=O)c2ccccc2O)cc1 (stereo not given)	> 10 µM (inactive)	4.35 µM (inactive)	–	> 10 µM (inactive)	7 µM (inactive)	–	3.78 µM (inactive)	> 10 µM (inactive)	1.41 µM (inactive)	2.54 µM (inactive)	> 10 µM (inactive)	> 10 µM (inactive)	> 10 µM (inactive)	> 10 µM (inactive)	> 10 µM (inactive)	7.14 µM (inactive)	1.51 µM (inactive)	> 10 µM (inactive)	5.68 µM (inactive)	3.3 µM (inactive)
CCCCCCc1cc2cc(C(=O)Nc3cccc(F)c3)c(=N)oc2cc1O	2.99 µM (inactive)	1.15 µM (inactive)	3.19 µM (inactive)	2.71 µM (inactive)	2.12 µM (inactive)	1.59 µM (inactive)	2.4 µM (inactive)	–	1.94 µM (inactive)	–	1.63 µM (inactive)	2.9 µM (inactive)	–	2.31 µM (inactive)	2.04 µM (inactive)	3.14 µM (inactive)	2.21 µM (inactive)	2.86 µM (inactive)	3.26 µM (inactive)	3.37 µM (inactive)
CCNc1nnc(-c2ccccc2Nc2ccccc2-c2nnc(NCC)s2)s1	23.6 µM (inactive)	37.2 µM (inactive)	11.6 µM (inactive)	9.46 µM (inactive)	14 µM (inactive)	6.75 µM (inactive)	17.4 µM (inactive)	8.02 µM (inactive)	11.5 µM (inactive)	18.2 µM (inactive)	4.18 µM (inactive)	2.85 µM (inactive)	18.9 µM (inactive)	19.2 µM (inactive)	5.32 µM (inactive)	9.73 µM (inactive)	12.3 µM (inactive)	9.89 µM (inactive)	–	9.06 µM (inactive)
Cn1cc(NC(=O)c2cc(NC(=O)CNC(=N)N)cn2C)cc1C(=O)NCCC(=N)N [NETROPSIN CHLORIDE]	> 100 µM (inactive)	> 100 µM (inactive)	> 100 µM (inactive)	> 100 µM (inactive)	> 100 µM (inactive)	> 100 µM (inactive)	> 100 µM (inactive)	–	> 100 µM (inactive)	–	> 100 µM (inactive)	> 100 µM (inactive)	> 100 µM (inactive)	41.7 µM (inactive)	> 100 µM (inactive)	> 100 µM (inactive)	> 100 µM (inactive)	> 100 µM (inactive)	> 100 µM (inactive)	> 100 µM (inactive)
